The results in this text go back to PMC6544337, “Development of chimeric and bifunctional antagonists for CLR/RAMP receptors” (PLoS ONE, 2019).

The target in one assay is CLR/RAMP1 (Homo sapiens, UniProt O60894+Q16602). As to the kind of experiment: CLR/RAMP1 cAMP assay, antagonist mode (CGRP challenge at EC80). Type of assay: cell-based. The settings on record: for Emax: maximum inhibition of CGRP-mediated signaling, in % of a positive control, read-out: CLR/RAMP1 Max Activity % of control (antagonistic). (In general: Changes in cAMP serve as a functional read-out for many G protein-coupled receptors.)

Another assay has as its target CLR/RAMP2 (Homo sapiens, UniProt O60895+Q16602). Briefly: CLR/RAMP2 PathHunter β-arrestin assay, antagonist mode (ADM challenge at EC80). Type of assay: cell-based. The note with it: for IC50: inhibition of ADM-mediated signaling, CHO-K1 cells, pre-incubation with antagonist, then agonist at EC80, β-arrestin read-out; for Emax: maximum inhibition of ADM-mediated signaling, in % of a positive control, read-out: CLR/RAMP2 Max Activity % of control (antagonistic). The protocol:
The bioactivity of synthetic analogs was studied using cells that stably express CLR/RAMP1 (1321N1 cells) or CLR/RAMP2 (CHO-K1 cells) receptors using CLR/RAMP1 cAMP and CLR/RAMP2 arrestin assays from DiscoveRx (Fremont, Ca). In receptor-activation assays, the dose-dependent stimulatory response was studied in duplicate, at 10 different concentrations.
The CLR/RAMP2 signaling was assayed using the CLR/RAMP2 PathHunter β-Arrestin assay. In this assay, the GPCR was fused in frame with a small enzyme donor fragment ProLink (PK) and co-expressed in cells stably expressing a fusion protein of β-arrestin and an N-terminal deletion mutant of β-galactosidase (i.e., enzyme acceptor or EA). Activation of the CLR/RAMP2 stimulates binding of β-arrestin to the PK-tagged receptor and leads to an increase in enzyme activity that can be measured using chemiluminescent PathHunter Detection Reagents. PathHunter cell lines were seeded in white walled, 384-well microplates and incubated at 37C prior to testing. For agonist determination, intermediate dilution of sample stocks was performed to generate 5X sample in assay buffer, and 5 μl of 5X sample was added to cells and incubated at 37C for 90 minutes. Vehicle concentration was 1%. For antagonistic activity determination, cells were pre-incubated with antagonist followed by agonist challenge at the EC80 concentration.

CLR/RAMP2, sequence (Q16602 23-461): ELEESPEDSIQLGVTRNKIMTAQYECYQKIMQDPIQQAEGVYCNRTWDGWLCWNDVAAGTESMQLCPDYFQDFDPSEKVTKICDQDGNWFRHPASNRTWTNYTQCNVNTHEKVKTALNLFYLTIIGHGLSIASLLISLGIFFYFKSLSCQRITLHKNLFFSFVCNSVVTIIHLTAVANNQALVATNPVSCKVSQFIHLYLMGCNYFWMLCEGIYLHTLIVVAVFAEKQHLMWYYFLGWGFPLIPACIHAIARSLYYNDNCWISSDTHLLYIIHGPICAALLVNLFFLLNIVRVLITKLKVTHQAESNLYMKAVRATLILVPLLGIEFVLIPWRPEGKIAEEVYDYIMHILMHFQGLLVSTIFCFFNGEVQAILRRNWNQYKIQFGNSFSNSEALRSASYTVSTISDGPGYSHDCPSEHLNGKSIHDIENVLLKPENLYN
CLR/RAMP2, sequence (O60895 43-175): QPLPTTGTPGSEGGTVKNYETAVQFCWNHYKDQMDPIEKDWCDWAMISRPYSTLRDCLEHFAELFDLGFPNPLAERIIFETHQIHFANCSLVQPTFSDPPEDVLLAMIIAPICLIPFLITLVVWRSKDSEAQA
CLR/RAMP1, sequence (Q16602 23-461): as the sequence (Q16602 23-461) above
CLR/RAMP1, sequence (O60894 27-148): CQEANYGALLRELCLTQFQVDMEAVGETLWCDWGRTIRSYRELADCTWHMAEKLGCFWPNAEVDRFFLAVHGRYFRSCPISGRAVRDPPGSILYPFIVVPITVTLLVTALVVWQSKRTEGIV

Turning to `CC[C@H](C)[C@H](NC(=O)[C@H](CCCCN)NC(=O)[C@H](CO)NC(=O)[C@H](CCCNC(=N)N)NC(=O)[C@@H]1CCCN1C(=O)[C@H](C)NC(=O)[C@@H](NC(=O)[C@H](CC(N)=O)NC(=O)[C@H](CC(=O)O)NC(=O)[C@H](CCCCN)NC(=O)[C@H](CC(=O)O)NC(=O)[C@@H]1CCCN1C(=O)CNC(=O)[C@H](CCSC)NC(=O)[C@H](CC(C)C)NC(=O)[C@H](CCC(N)=O)NC(=O)[C@H](Cc1c[nH]c2ccccc12)NC(=O)[C@H](CC(C)C)NC(=O)[C@H](CCCNC(=N)N)NC(=O)[C@H](Cc1c[nH]cn1)NC(=O)[C@H](C)NC(=O)[C@H](CC(C)C)NC(=O)[C@H](CCCCN)NC(=O)[C@H](CCC(N)=O)NC(=O)[C@@H](NC(=O)[C@@H](N)[C@@H](C)O)C(C)C)C(C)C)C(=O)N[C@@H](CO)C(=O)N1CCC[C@H]1C(=O)N[C@@H](CCC(N)=O)C(=O)NCC(=O)N[C@@H](Cc1ccc(O)cc1)C(N)=O` [Antagonist 1–6], at CLR/RAMP1, half-maximal inhibition (IC50) was put at 152 nM and the Emax is 101%. On CLR/RAMP2, the IC50 is 7.3 nM and the Emax is 101%.
In the case of `CC[C@H](C)[C@H](NC(=O)[C@H](CCC(N)=O)NC(=O)[C@H](Cc1c[nH]cn1)NC(=O)[C@H](C)NC(=O)[C@H](CC(C)C)NC(=O)[C@H](CCCCN)NC(=O)[C@H](CCC(N)=O)NC(=O)[C@@H](NC(=O)[C@@H](N)[C@@H](C)O)C(C)C)C(=O)N[C@@H](Cc1ccc(O)cc1)C(=O)N[C@@H](CCC(N)=O)C(=O)N[C@@H](Cc1ccccc1)C(=O)N[C@H](C(=O)N[C@@H](CC(=O)O)C(=O)N[C@@H](CCCCN)C(=O)N[C@@H](CC(=O)O)C(=O)N[C@@H](CCCCN)C(=O)N[C@@H](CC(=O)O)C(=O)N[C@@H](CC(N)=O)C(=O)N[C@@H](CO)C(=O)N[C@@H](C)C(=O)N1CCC[C@H]1C(=O)N[C@H](C(=O)N[C@@H](CC(=O)O)C(=O)N1CCC[C@H]1C(=O)N[C@@H](CO)C(=O)N[C@@H](CO)C(=O)N1CCC[C@H]1C(=O)N[C@@H](Cc1c[nH]cn1)C(=O)N[C@@H](CO)C(=O)N[C@@H](Cc1ccc(O)cc1)C(N)=O)C(C)C)[C@@H](C)O` [Antagonist 1–4], on CLR/RAMP1, half-maximal inhibition (IC50) was put at 1120 nM and the Emax is 106%. In addition, at CLR/RAMP2, the IC50 amounted to 289 nM and the Emax stood at 101%.
Consider `NCCCC[C@H](NC(=O)[C@@H](Cc1cc(Br)c(O)c(Br)c1)NC(=O)N1CCC(N2Cc3ccccc3NC2=O)CC1)C(=O)N1CCN(c2ccncc2)CC1` [BIBN4096, reference compound], for which the Emax on CLR/RAMP2 came out at 0%.
On the same count and under the same terms, with `CCCCCCCCCCCCCCCC(=O)N[C@H](C(=O)N[C@H](C(=O)N[C@@H](CCC(N)=O)C(=O)N[C@@H](CCCCN)C(=O)N[C@@H](CC(C)C)C(=O)N[C@@H](C)C(=O)N[C@@H](Cc1c[nH]cn1)C(=O)N[C@@H](CCC(N)=O)C(=O)N[C@H](C(=O)N[C@@H](Cc1ccc(O)cc1)C(=O)N[C@@H](CCC(N)=O)C(=O)N[C@@H](Cc1ccccc1)C(=O)N[C@H](C(=O)N[C@@H](CC(=O)O)C(=O)N[C@@H](CCCCN)C(=O)N[C@@H](CC(=O)O)C(=O)N[C@@H](CCCCN)C(=O)N[C@@H](CC(=O)O)C(=O)N[C@@H](CC(N)=O)C(=O)N[C@@H](CO)C(=O)N[C@@H](C)C(=O)N1CCC[C@H]1C(=O)N[C@H](C(=O)N[C@@H](CC(=O)O)C(=O)N1CCC[C@H]1C(=O)N[C@@H](CO)C(=O)N[C@@H](CO)C(=O)N1CCC[C@H]1C(=O)N[C@@H](Cc1c[nH]cn1)C(=O)N[C@@H](CO)C(=O)N[C@@H](Cc1ccc(O)cc1)C(N)=O)C(C)C)[C@@H](C)O)[C@@H](C)CC)C(C)C)[C@@H](C)O` [Antagonist 1–1] the figure was 100%.

As usually defined, the IC50 is the midpoint of a concentration-inhibition curve.
